Laboratory results published in PMC8504577, “Evaluation of a Clinically Relevant Drug–Drug Interaction Between Rosuvastatin and Clopidogrel and the Risk of Hepatotoxicity” (Frontiers in Pharmacology, 2021).
Like-named read-outs stand apart in the source and are kept apart here.

Assay: Hepatobiliary transport study in rats
Assay type: in vivo, Sprague-Dawley rats
Conditions: for Tmax / Kp / Cmax / AUC(0-t): Sprague-Dawley, rat; for Tmax / Cmax / AUC(0-t): 5 mg/kg; for Kp: liver/plasma, read-out: Liver AUC0-5min/Plasma AUC0-5min; for AUC(0-t): read-out: Plasma AUC0-5min (converted); for CLint,bile / CLuptake,liver: integration plot method
Procedure: For the hepatobiliary transport study, 24 rats were randomly assigned into eight groups (n = 3, each group, groups V to XII) and they received a p.o. dose as oral gavage of CP (27 mg/kg) for 20 days. The remaining 24 rats were also randomly assigned into eight groups (n = 3, each group, groups XIII to XX) and received the same volume of vehicle control for 20 days. […] On day 21, rats were anesthetized and incised along the abdominal midline, and bile duct intubation was performed prior to drug administration. […] Rats were euthanized at 0.25, 0.47, 0.67, 1, 1.5, 2, 2.5, and 5 min post dose. Arterial blood, bile, and liver samples were collected.
Supplementary Table 2. Pharmacokinetic parameters of hepatobiliary transport study in rats. (n= 3) RSV CLuptake,liver and CLint,bile were calculated by integration plot methods.^[1, 2]

[1] = plasma, iv, i.v. RSV 5 mg/kg, with DDI (multiple p.o. CP 27 mg/kg)
[2] = plasma, iv, i.v. RSV 5 mg/kg, without DDI
[3] = i.v. RSV 5 mg/kg, with DDI (multiple p.o. CP 27 mg/kg)

CC(C)c1nc(N(C)S(C)(=O)=O)nc(-c2ccc(F)cc2)c1/C=C/[C@@H](O)C[C@@H](O)CC(=O)O [RSV, rosuvastatin]
Tmax (liver, iv, i.v. RSV 5 mg/kg, with DDI (multiple p.o. CP 27 mg/kg), read-out: Liver Tmax (converted)): 1.72 min
Tmax (liver, iv, i.v. RSV 5 mg/kg, without DDI, read-out: Liver Tmax (converted)): 2 min
Kp (intravenous, i.v. RSV 5 mg/kg, with DDI (multiple p.o. CP 27 mg/kg)): 1.38 ± 0.13
Kp (iv, i.v. RSV 5 mg/kg, without DDI): 1.72 ± 0.18
Cmax [1]: 56 ± 9.15 µg/mL
AUC(0-t) [1]: 1710 ng·h/mL
Tmax (plasma, iv, i.v. RSV 5 mg/kg, with DDI (multiple p.o. CP 27 mg/kg), read-out: Plasma Tmax (converted)): 0.36 min
Cmax [2]: 62.1 ± 24.2 µg/mL
AUC(0-t) [2]: 1190 ng·h/mL
Tmax (plasma, iv, i.v. RSV 5 mg/kg, without DDI, read-out: Plasma Tmax (converted)): 0.31 min
Bile0-5min (with DDI/without DDI)% (i.v. RSV 5 mg/kg): 84.95%
Bile0-5min/Liver AUC0-5min (with DDI/without DDI)% (i.v. RSV 5 mg/kg): 73.81%
CLint,bile (with DDI/without DDI)% (i.v. RSV 5 mg/kg): 60.81%
CLuptake,liver (with DDI/without DDI)% (i.v. RSV 5 mg/kg): 47.62%
Liver AUC0-5min (with DDI/without DDI)% (i.v. RSV 5 mg/kg): 115.37%
Liver AUC0-5min/Plasma AUC0-5min (with DDI/without DDI)% (i.v. RSV 5 mg/kg): 80.23%
Liver Cmax (with DDI/without DDI)% (i.v. RSV 5 mg/kg): 94.79%
Liver Tmax (with DDI/without DDI)% (i.v. RSV 5 mg/kg): 86.00%
Plasma AUC0-5min (with DDI/without DDI)% (i.v. RSV 5 mg/kg): 143.73%
Plasma Cmax (with DDI/without DDI)% (i.v. RSV 5 mg/kg): 90.18%
Plasma Tmax (with DDI/without DDI)% (i.v. RSV 5 mg/kg): 116.13%
Bile0-5min [3]: 218.80 ± 138.59 µg
Bile0-5min/Liver AUC0-5min [3]: 1.55 ± 0.98 g/min
Liver AUC0-5min [3]: 141196.71 ± 13631.53 ng·min/g
Liver Cmax [3]: 36840.00 ± 1304.15 ng/g
CLint,bile [3]: 1.80 ± 1.10 g/min
CLuptake,liver [3]: 0.40 ± 0.15 mL/min/g
Bile0-5min (i.v. RSV 5 mg/kg, without DDI): 257.57 ± 104.42 µg
Bile0-5min/Liver AUC0-5min (i.v. RSV 5 mg/kg, without DDI): 2.10 ± 0.85 g/min
Liver AUC0-5min (i.v. RSV 5 mg/kg, without DDI): 122384.16 ± 13075.60 ng·min/g
Liver Cmax (i.v. RSV 5 mg/kg, without DDI): 38866.67 ± 3503.67 ng/g
CLint,bile (i.v. RSV 5 mg/kg, without DDI): 2.96 ± 1.50 g/min
CLuptake,liver (i.v. RSV 5 mg/kg, without DDI): 0.84 ± 0.45 mL/min/g
Decrease of RSV CLint,bile in presence of CP (i.v. RSV, not significant): 39.19%
Decrease of RSV CLuptake,liver in presence of CP (i.v. RSV, not significant): 52.38%
Decrease of RSV bile0–5min/liver AUC0–5min in presence of CP (i.v. RSV, not significant): 26.19%
Decrease of RSV liver AUC0–5min/plasma AUC0–5min in presence of CP (i.v. RSV, not significant): 19.77%
